Columns and labels:
HepG2 cells = experiment: MTT assay on HepG2 cells; assay type: cell-based; conditions: Homo sapiens, mean of three experiments, read-out: HepG2 percentage inhibitory rate
PCSK9/LDLR PPI = PCSK9/LDLR PPI (Homo sapiens, UniProt Q8NBP7); experiment: PCSK9-LDLR TR-FRET assay (PCSK9/LDLR PPI inhibitory screening); assay type: binding; conditions: 10 µM; mean of three experiments; read-out: PCSK9 percentage inhibitory rate
Description: The PCSK9/LDLR time-resolved fluorescence resonance energy transfer (TR-FRET) assay was performed to evaluate the activity of synthesised compounds in inhibition of PCSK9-LDLR binding. The A series compounds were firstly synthesised for the PCSK9/LDLR PPI inhibitory test. […] Therefore, a group of A12 derivatives (B series) were synthesised with 4-chlorobenzyl substituted in the amino group and various substitutions introduced to the carboxylic group. […] To confirm whether the 4-chloromethyl group is essential for the PPI inhibitory activity, a new series of compounds (C series) were synthesised with the 4-chloromethyl group replaced by 4-methoxymethyl moiety. The inhibitory activity was observed, most likely resulting from the 4-methoxymethyl substitution (Table 3).
The compounds were dissolved in 100% DMSO; then 2 µL of the dilution was added to a 20 µL of reaction to keep […] in all of reactions. The binding reaction was conducted at room temperature. The reaction mixture in assay buffer contains PCSK9, the indicated amount of the inhibitor, ligand LDLR, and the reaction dyes. The reaction mixture was incubated for 120 min before detection of the TR-FRET signal. Fluorescence signals for both the donor and acceptor dyes were measured using a Tecan Infinite M1000 plate reader. TR-FRET was recorded as the ratio of the fluorescence of the acceptor and the donor dyes (acceptor/donor). The TR-FRET data were analysed using Graphpad Prism software.

Sequence of PCSK9/LDLR PPI (Q8NBP7 153-692): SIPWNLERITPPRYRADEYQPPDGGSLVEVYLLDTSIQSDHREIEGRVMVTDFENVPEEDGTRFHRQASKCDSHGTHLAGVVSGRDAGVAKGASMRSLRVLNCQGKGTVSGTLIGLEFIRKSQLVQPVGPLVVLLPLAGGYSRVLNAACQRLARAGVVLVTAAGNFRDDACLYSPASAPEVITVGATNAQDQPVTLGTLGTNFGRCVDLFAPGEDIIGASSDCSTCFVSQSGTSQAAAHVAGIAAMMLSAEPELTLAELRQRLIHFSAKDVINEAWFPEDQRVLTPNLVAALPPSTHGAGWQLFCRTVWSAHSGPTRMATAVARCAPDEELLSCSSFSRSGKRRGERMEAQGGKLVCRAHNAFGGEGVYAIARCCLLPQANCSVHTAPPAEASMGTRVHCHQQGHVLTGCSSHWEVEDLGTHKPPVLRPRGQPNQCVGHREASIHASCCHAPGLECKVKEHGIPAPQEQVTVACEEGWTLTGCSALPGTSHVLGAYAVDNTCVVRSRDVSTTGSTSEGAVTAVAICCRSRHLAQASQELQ
Sequence of PCSK9/LDLR PPI (Q8NBP7 31-152 partner limits assumed): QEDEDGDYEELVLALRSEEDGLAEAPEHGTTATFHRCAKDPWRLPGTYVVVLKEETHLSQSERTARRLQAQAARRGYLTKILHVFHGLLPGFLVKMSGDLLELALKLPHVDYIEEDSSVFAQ

| Compound | inhibition at 10 µM (HepG2 cells) | inhibition at 10 µM (PCSK9/LDLR PPI) |
| --- | --- | --- |
| O=C(Nc1ccc(-c2ccccc2)cc1)c1ccc(-c2cc3c(cc2NC(=O)c2ccc(CCl)cc2)OCO3)cc1 [B11, N-([1,1′-biphenyl]-4-yl)-4-(6-(4-(chloromethyl)benzamido)benzo[d][1,3]dioxol-5-yl)benzamide] | 3.26 ± 0.22% | 6.92 ± 0.53% |
| O=C(Nc1ccc2c(c1)OCCO2)c1ccc(-c2cc3c(cc2NC(=O)c2ccc(CCl)cc2)OCO3)cc1 [B12, 4-(Chloromethyl)-N-(6-(4-((2,3-dihydrobenzo[b][1,4]dioxin-6-yl)carbamoyl)phenyl)benzo[d][1,3]dioxol-5-yl)benzamide] | 5.76 ± 0.24% | 5.16 ± 0.2% |
| O=C(Nc1cc2c(cc1-c1ccc(C(=O)N3CCN(c4ccccc4)CC3)cc1)OCO2)c1ccc(CCl)cc1 [B13, 4-(Chloromethyl)-N-(6-(4-(4-phenylpiperazine-1-carbonyl)phenyl)benzo[d][1,3]dioxol-5-yl)benzamide] | 3.21 ± 0.26% | 5.64 ± 0.04% |
| CCc1ccc(N2CCN(C(=O)c3ccc(-c4cc5c(cc4NC(=O)c4ccc(CCl)cc4)OCO5)cc3)CC2)cc1 [B15, 4-(Chloromethyl)-N-(6-(4-(4-(4-ethylphenyl)piperazine-1-carbonyl)phenyl)benzo[d][1,3]dioxol-5-yl)benzamide] | 8.91 ± 0.62% | 7.22 ± 0.71% |
| O=C(Nc1cc2c(cc1-c1ccc(C(=O)N3CCN(c4ccc(Cl)cc4)CC3)cc1)OCO2)c1ccc(CCl)cc1 [B16, 4-(Chloromethyl)-N-(6-(4-(4-(4-chlorophenyl)piperazine-1-carbonyl)phenyl)benzo[d][1,3]dioxol-5-yl)benzamide] | 10.2 ± 0.91% | 7.94 ± 0.03% |
| O=C(Nc1cc2c(cc1-c1ccc(C(=O)N3CCN(c4ccc(F)cc4)CC3)cc1)OCO2)c1ccc(CCl)cc1 [B17, 4-(Chloromethyl)-N-(6-(4-(4-(4-fluorophenyl)piperazine-1-carbonyl)phenyl)benzo[d][1,3]dioxol-5-yl)benzamide] | 16.4 ± 1.18% | 4.07 ± 0.25% |
| CCN1CCN(C(=O)c2ccc(-c3cc4c(cc3NC(=O)c3ccc(CCl)cc3)OCO4)cc2)CC1 [B18, 4-(Chloromethyl)-N-(6-(4-(4-ethylpiperazine-1-carbonyl)phenyl)benzo[d][1,3]dioxol-5-yl)benzamide] | 6.76 ± 0.26% | 5.66 ± 0.02% |
| CC(C)N1CCN(C(=O)c2ccc(-c3cc4c(cc3NC(=O)c3ccc(CCl)cc3)OCO4)cc2)CC1 [B19, 4-(Chloromethyl)-N-(6-(4-(4-isopropylpiperazine-1-carbonyl)phenyl)benzo[d][1,3]dioxol-5-yl)benzamide] | 8.38 ± 0.81% | 5.82 ± 0.31% |
| CC(C)NC(=O)c1ccc(-c2cc3c(cc2NC(=O)c2ccc(CCl)cc2)OCO3)cc1 [B20, 4-(Chloromethyl)-N-(6-(4-(isopropylcarbamoyl)phenyl)benzo[d][1,3]dioxol-5-yl)benzamide] | 9.55 ± 0.43% | 3.15 ± 0.13% |
| COCc1ccc(C(=O)Nc2cc3c(cc2-c2ccc(C(=O)Nc4cc(OC)cc(OC)c4)cc2)OCO3)cc1 [C1, N-(3,5-dimethoxyphenyl)-4-(6-(4-(methoxymethyl)benzamido)benzo[d][1,3]dioxol-5-yl)benzamide] | 6.21 ± 0.22% | 21.6 ± 1.67% |
| COCc1ccc(C(=O)Nc2cc3c(cc2-c2ccc(C(=O)N4CCN(C(=O)OC(C)(C)C)CC4)cc2)OCO3)cc1 [C2, Tert-butyl4-(4-(6-(4-(methoxymethyl)benzamido)benzo[d][1,3]dioxol-5-yl)benzoyl)piperazine-1-carboxylate] | 13.5 ± 1.13% | 17.8 ± 1.24% |
| COCc1ccc(C(=O)Nc2cc3c(cc2-c2ccc(C(=O)N4CCN(c5ccc(OC)cc5)CC4)cc2)OCO3)cc1 [C3, 4-(Methoxymethyl)-N-(6-(4-(4-(4-methoxyphenyl)piperazine-1-carbonyl)phenyl)benzo[d][1,3]dioxol-5-yl)benzamide] | 6.62 ± 0.45% | 25.3 ± 2.11% |
| COCc1ccc(C(=O)Nc2cc3c(cc2-c2ccc(C(=O)N4CCN(c5ccccc5OC)CC4)cc2)OCO3)cc1 [C4, 4-(Methoxymethyl)-N-(6-(4-(4-(2-methoxyphenyl)piperazine-1-carbonyl)phenyl)benzo[d][1,3]dioxol-5-yl)benzamide] | 6.77 ± 0.62% | 7.55 ± 0.71% |
| COCc1ccc(C(=O)Nc2cc3c(cc2-c2ccc(C(=O)N4CCN(CCc5ccccc5)CC4)cc2)OCO3)cc1 [C5, 4-(Methoxymethyl)-N-(6-(4-(4-phenethylpiperazine-1-carbonyl)phenyl)benzo[d][1,3]dioxol-5-yl)benzamide] | 5.63 ± 0.37% | 5.92 ± 0.32% |
| COCc1ccc(C(=O)Nc2cc3c(cc2-c2ccc(C(=O)N4CCN(c5ccccc5)CC4)cc2)OCO3)cc1 [C6, 4-(Methoxymethyl)-N-(6-(4-(4-phenylpiperazine-1-carbonyl)phenyl)benzo[d][1,3]dioxol-5-yl)benzamide] | 6.15 ± 0.26% | 3.39 ± 1.67% |
| COCc1ccc(C(=O)Nc2cc3c(cc2-c2ccc(C(=O)N4CCN(c5ccc(F)cc5)CC4)cc2)OCO3)cc1 [C7, N-(6-(4-(4-(4-fluorophenyl)piperazine-1-carbonyl)phenyl)benzo[d][1,3]dioxol-5-yl)-4-(methoxymethyl)benzamide] | 12.8 ± 1.07% | 33.4 ± 1.52% |
| COCc1ccc(C(=O)Nc2cc3c(cc2-c2ccc(C(=O)N4CCN(c5ccc(Cl)cc5)CC4)cc2)OCO3)cc1 [C8, N-(6-(4-(4-(4-chlorophenyl)piperazine-1-carbonyl)phenyl)benzo[d][1,3]dioxol-5-yl)-4-(methoxymethyl)benzamide] | 14.5 ± 1.22% | 25.7 ± 1.2% |
| COCc1ccc(C(=O)Nc2cc3c(cc2-c2ccc(C(=O)Nc4ccc(N5CCN(C)CC5)cc4)cc2)OCO3)cc1 [C9, 4-(Methoxymethyl)-N-(6-(4-((4-(4-methylpiperazin-1-yl)phenyl)carbamoyl)phenyl)benzo[d][1,3]dioxol-5-yl)benzamide] | 6.22 ± 0.24% | 3.75 ± 0.33% |
| COCc1ccc(C(=O)Nc2cc3c(cc2-c2ccc(C(=O)NC(C)C)cc2)OCO3)cc1 [C10, N-isopropyl-4-(6-(4-(methoxymethyl)benzamido)benzo[d][1,3]dioxol-5-yl)benzamide] | 6.76 ± 0.18% | 5.48 ± 0.2% |
